Assay results reported in PubChem BioAssay (NCI).
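Step 1: Grow cells in 96-well plates. Step 2: Expose to compound for 48 hours at 5 concentrations. Step 3: Interpolate endpoints linearly; if unreached, use highest concentration. The concentration for full growth arrest is given as TGI.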

Legend:
Assay in all cases: inhibition of tumour cell growth, NCI panel, 48 h
786-0 renal = test system: 786-0 renal
K-562 leukemia = test system: K-562 leukemia
MCF7 breast = test system: MCF7 breast
SW-620 colon = test system: SW-620 colon
SN12C renal = test system: SN12C renal
MOLT-4 leukemia = test system: MOLT-4 leukemia
NCI/ADR-RES ovarian = test system: NCI/ADR-RES ovarian
NCI-H460 lung = test system: NCI-H460 lung
UO-31 renal = test system: UO-31 renal
EKVX NSCLC = test system: EKVX NSCLC
HCT-15 colon = test system: HCT-15 colon
SNB-19 CNS = test system: SNB-19 CNS
U251 CNS = test system: U251 CNS
NCI-H522 lung = test system: NCI-H522 lung
ACHN renal = test system: ACHN renal
HL-60(TB) leukemia = test system: HL-60(TB) leukemia
SF-295 CNS = test system: SF-295 CNS
OVCAR-5 ovarian = test system: OVCAR-5 ovarian
DU-145 prostate = test system: DU-145 prostate
KM12 colon = test system: KM12 colon
CCRF-CEM leukemia = test system: CCRF-CEM leukemia
HOP-92 NSCLC = test system: HOP-92 NSCLC
NCI-H23 lung = test system: NCI-H23 lung
SR leukemia = test system: SR leukemia
HT29 colon = test system: HT29 colon
OVCAR-4 ovarian = test system: OVCAR-4 ovarian
OVCAR-8 ovarian = test system: OVCAR-8 ovarian
MDA-MB-435 = test system: MDA-MB-435
A549 NSCLC = test system: A549 NSCLC
UACC-62 melanoma = test system: UACC-62 melanoma
TK-10 renal = test system: TK-10 renal
SF-539 CNS = test system: SF-539 CNS
M14 melanoma = test system: M14 melanoma
BT-549 breast = test system: BT-549 breast
MDA-N = test system: MDA-N
NCI-H226 lung = test system: NCI-H226 lung
SF-268 CNS = test system: SF-268 CNS
RPMI-8226 leukemia = test system: RPMI-8226 leukemia
HOP-62 NSCLC = test system: HOP-62 NSCLC
LOX IMVI melanoma = test system: LOX IMVI melanoma
PC-3 prostate = test system: PC-3 prostate
UACC-257 melanoma = test system: UACC-257 melanoma
CAKI-1 renal = test system: CAKI-1 renal
SNB-75 CNS = test system: SNB-75 CNS
HCT-116 colon = test system: HCT-116 colon
A498 renal = test system: A498 renal
COLO 205 colon = test system: COLO 205 colon
SK-MEL-28 melanoma = test system: SK-MEL-28 melanoma
SK-MEL-5 melanoma = test system: SK-MEL-5 melanoma
MALME-3M melanoma = test system: MALME-3M melanoma
SK-MEL-2 melanoma = test system: SK-MEL-2 melanoma
T-47D breast = test system: T-47D breast
HCC-2998 colon = test system: HCC-2998 colon
HS 578T breast = test system: HS 578T breast
RXF 393 renal = test system: RXF 393 renal
OVCAR-3 ovarian = test system: OVCAR-3 ovarian
SK-OV-3 ovarian = test system: SK-OV-3 ovarian
IGROV1 ovarian = test system: IGROV1 ovarian
MDA-MB-231 breast = test system: MDA-MB-231 breast

Q: For O=P(Nc1ccccc1)(Oc1ccccc1)N1CCN(c2ccccc2)CC1 (stereo not drawn), which TGI (786-0 renal) is on record?
A: Its TGI is 53.6 µM.

Q: What about the TGI (K-562 leukemia) of the same molecule?
A: The TGI was over 100 µM.

Q: What about the TGI (MCF7 breast) of the same molecule?
A: Its TGI is 32.1 µM.

Q: And the TGI (SW-620 colon)?
A: Its TGI is 63.6 µM.

Q: What about the TGI (SN12C renal) of the same molecule?
A: The TGI was 36 µM.

Q: And the TGI (MOLT-4 leukemia)?
A: Its TGI is 52.6 µM.

Q: And the TGI (NCI/ADR-RES ovarian)?
A: Its TGI is 39 µM.

Q: What about the TGI (NCI-H460 lung) of the same molecule?
A: Its TGI is 33.3 µM.

Q: What about the TGI (UO-31 renal) of the same molecule?
A: The TGI was 31 µM.

Q: What about the TGI (EKVX NSCLC) of the same molecule?
A: The TGI was 51.1 µM.

Q: And the TGI (HCT-15 colon)?
A: Its TGI is 35 µM.

Q: What about the TGI (SNB-19 CNS) of the same molecule?
A: The TGI was 32.1 µM.

Q: And the TGI (U251 CNS)?
A: Its TGI is 30.8 µM.

Q: And the TGI (NCI-H522 lung)?
A: Its TGI is 19.7 µM.

Q: What about the TGI (ACHN renal) of the same molecule?
A: Its TGI is 53.9 µM.

Q: And the TGI (HL-60(TB) leukemia)?
A: Its TGI is over 100 µM.

Q: What about the TGI (SF-295 CNS) of the same molecule?
A: Its TGI is 33.6 µM.

Q: And the TGI (OVCAR-5 ovarian)?
A: The TGI was 33.5 µM.

Q: And the TGI (DU-145 prostate)?
A: Its TGI is 49.4 µM.

Q: What about the TGI (KM12 colon) of the same molecule?
A: The TGI was 33.5 µM.

Q: And the TGI (CCRF-CEM leukemia)?
A: The TGI was over 100 µM.

Q: What about the TGI (HOP-92 NSCLC) of the same molecule?
A: Its TGI is 33.9 µM.

Q: What about the TGI (NCI-H23 lung) of the same molecule?
A: Its TGI is 36.9 µM.

Q: What about the TGI (SR leukemia) of the same molecule?
A: Its TGI is over 100 µM.

Q: What about the TGI (HT29 colon) of the same molecule?
A: The TGI was 29.3 µM.

Q: What about the TGI (OVCAR-4 ovarian) of the same molecule?
A: The TGI was 62.5 µM.

Q: And the TGI (OVCAR-8 ovarian)?
A: The TGI was 49.8 µM.

Q: What about the TGI (MDA-MB-435) of the same molecule?
A: The TGI was 51.5 µM.

Q: What about the TGI (A549 NSCLC) of the same molecule?
A: The TGI was 38.5 µM.

Q: What about the TGI (UACC-62 melanoma) of the same molecule?
A: Its TGI is 25.8 µM.

Q: And the TGI (TK-10 renal)?
A: Its TGI is 52.2 µM.

Q: What about the TGI (SF-539 CNS) of the same molecule?
A: Its TGI is 33.9 µM.

Q: What about the TGI (M14 melanoma) of the same molecule?
A: The TGI was 28.6 µM.

Q: What about the TGI (BT-549 breast) of the same molecule?
A: The TGI was 29.5 µM.

Q: What about the TGI (MDA-N) of the same molecule?
A: Its TGI is 31.6 µM.

Q: And the TGI (NCI-H226 lung)?
A: Its TGI is 43.9 µM.

Q: And the TGI (SF-268 CNS)?
A: The TGI was 84.1 µM.

Q: And the TGI (RPMI-8226 leukemia)?
A: Its TGI is over 100 µM.

Q: And the TGI (HOP-62 NSCLC)?
A: Its TGI is 32.3 µM.

Q: What about the TGI (LOX IMVI melanoma) of the same molecule?
A: Its TGI is 33.5 µM.

Q: What about the TGI (PC-3 prostate) of the same molecule?
A: Its TGI is 51.7 µM.

Q: What about the TGI (UACC-257 melanoma) of the same molecule?
A: Its TGI is 36.7 µM.

Q: And the TGI (CAKI-1 renal)?
A: The TGI was 58.3 µM.

Q: What about the TGI (SNB-75 CNS) of the same molecule?
A: Its TGI is 30.4 µM.

Q: What about the TGI (HCT-116 colon) of the same molecule?
A: The TGI was 32.8 µM.

Q: What about the TGI (A498 renal) of the same molecule?
A: Its TGI is 35.6 µM.

Q: What about the TGI (COLO 205 colon) of the same molecule?
A: The TGI was 34.9 µM.

Q: And the TGI (SK-MEL-28 melanoma)?
A: Its TGI is 35.2 µM.

Q: What about the TGI (SK-MEL-5 melanoma) of the same molecule?
A: The TGI was 33.5 µM.

Q: What about the TGI (MALME-3M melanoma) of the same molecule?
A: Its TGI is 33.4 µM.

Q: And the TGI (SK-MEL-2 melanoma)?
A: Its TGI is 35.7 µM.

Q: What about the TGI (T-47D breast) of the same molecule?
A: The TGI was 58.5 µM.

Q: What about the TGI (HCC-2998 colon) of the same molecule?
A: Its TGI is 29.9 µM.

Q: And the TGI (HS 578T breast)?
A: The TGI was 40.5 µM.

Q: What about the TGI (RXF 393 renal) of the same molecule?
A: Its TGI is 33.9 µM.

Q: What about the TGI (OVCAR-3 ovarian) of the same molecule?
A: Its TGI is 39.7 µM.

Q: What about the TGI (SK-OV-3 ovarian) of the same molecule?
A: The TGI was 33.3 µM.

Q: What about the TGI (IGROV1 ovarian) of the same molecule?
A: The TGI was 40.4 µM.

Q: What about the TGI (MDA-MB-231 breast) of the same molecule?
A: Its TGI is 28.9 µM.

Q: What does the source list for CC(C)(C)c1cc(C(C)(C)C)c2c(c1O)OC(=O)CS2?
A: TGI (786-0 renal): 28.5 µM; TGI (K-562 leukemia): 40.6 µM; TGI (MCF7 breast): > 31.2 µM; TGI (SW-620 colon): 37.7 µM; TGI (SN12C renal): 21.8 µM; TGI (MOLT-4 leukemia): > 45.8 µM; TGI (NCI/ADR-RES ovarian): 20.6 µM; TGI (NCI-H460 lung): 9.13 µM; TGI (UO-31 renal): 20.5 µM; TGI (EKVX NSCLC): 25.6 µM; TGI (HCT-15 colon): 14.9 µM; TGI (SNB-19 CNS): 21.5 µM; TGI (U251 CNS): 17.9 µM; TGI (NCI-H522 lung): 14.3 µM; TGI (ACHN renal): > 41 µM; TGI (HL-60(TB) leukemia): 10.7 µM; TGI (SF-295 CNS): 18.8 µM; TGI (OVCAR-5 ovarian): 41 µM; TGI (DU-145 prostate): 51.6 µM; TGI (KM12 colon): 17.8 µM; TGI (CCRF-CEM leukemia): > 25.3 µM; TGI (HOP-92 NSCLC): > 47.7 µM; TGI (NCI-H23 lung): 18.1 µM; TGI (SR leukemia): > 48.7 µM; TGI (HT29 colon): 21.5 µM; TGI (OVCAR-4 ovarian): > 74.6 µM; TGI (OVCAR-8 ovarian): > 78 µM; TGI (MDA-MB-435): 20.1 µM; TGI (A549 NSCLC): > 68.2 µM; TGI (UACC-62 melanoma): 5.11 µM; TGI (TK-10 renal): 21.7 µM; TGI (SF-539 CNS): 12.5 µM; TGI (M14 melanoma): 41.2 µM; TGI (BT-549 breast): 23.9 µM; TGI (MDA-N): 14.8 µM; TGI (NCI-H226 lung): 26.3 µM; TGI (SF-268 CNS): 23.2 µM; TGI (RPMI-8226 leukemia): > 100 µM; TGI (HOP-62 NSCLC): 32.6 µM; TGI (LOX IMVI melanoma): 24 µM; TGI (PC-3 prostate): > 64.7 µM; TGI (UACC-257 melanoma): > 66.7 µM; TGI (CAKI-1 renal): > 62.7 µM; TGI (SNB-75 CNS): 6.84 µM; TGI (HCT-116 colon): 13.4 µM; TGI (A498 renal): 66.9 µM; TGI (COLO 205 colon): 9.89 µM; TGI (SK-MEL-28 melanoma): > 54.5 µM; TGI (SK-MEL-5 melanoma): 9.77 µM; TGI (MALME-3M melanoma): > 93.7 µM; TGI (SK-MEL-2 melanoma): 28.1 µM; TGI (T-47D breast): 22.9 µM; TGI (HCC-2998 colon): 14 µM; TGI (HS 578T breast): 20 µM; TGI (RXF 393 renal): 13.7 µM; TGI (OVCAR-3 ovarian): 18.1 µM; TGI (SK-OV-3 ovarian): > 95.1 µM; TGI (IGROV1 ovarian): > 60.2 µM; TGI (MDA-MB-231 breast): 52.4 µM
